Test results reported in patent publication US7807383B2, “Diagnosing and treating hormone resistant cancers” (Board of Regents, The University of Texas System, priority 2007, dated 2010).

Molecular target: T1, DBC-1/ERα interaction (Homo sapiens, UniProt P03372)
T1 sequence (P03372 1-595): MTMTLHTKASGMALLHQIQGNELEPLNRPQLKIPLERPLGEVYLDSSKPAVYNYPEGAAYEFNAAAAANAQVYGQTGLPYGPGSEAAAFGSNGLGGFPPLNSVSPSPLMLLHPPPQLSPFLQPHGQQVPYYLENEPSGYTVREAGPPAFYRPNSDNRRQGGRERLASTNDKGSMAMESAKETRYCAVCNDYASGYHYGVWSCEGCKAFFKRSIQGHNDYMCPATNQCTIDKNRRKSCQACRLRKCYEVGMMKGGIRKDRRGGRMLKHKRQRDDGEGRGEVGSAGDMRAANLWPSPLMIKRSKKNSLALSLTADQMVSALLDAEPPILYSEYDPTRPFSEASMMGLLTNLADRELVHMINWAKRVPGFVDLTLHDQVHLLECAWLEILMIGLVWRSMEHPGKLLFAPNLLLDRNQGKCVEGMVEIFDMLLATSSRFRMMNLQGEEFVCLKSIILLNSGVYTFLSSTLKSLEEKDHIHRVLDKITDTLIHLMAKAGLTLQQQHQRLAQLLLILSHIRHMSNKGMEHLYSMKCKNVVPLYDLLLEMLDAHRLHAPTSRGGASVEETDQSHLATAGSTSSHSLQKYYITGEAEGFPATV
Settings: MCF-7 and BG-1 cells, hormone-free medium; E2 10^−7 M, 4-OHT 10^−6 M, ICI 10^−7 M; one hour
Text: Results are representative of at least three independent experiments.

effect on DBC-1/ERα interaction (co-immunoprecipitation): disrupted the DBC-1/ERα interaction
SMILES: C[C@]12CC[C@@H]3c4ccc(O)cc4C[C@@H](CCCCCCCCC[S+]([O-])CCCC(F)(F)C(F)(F)F)[C@H]3[C@@H]1CC[C@@H]2O (stereo partly shown) [ICI 182,780]
